In US6949648B2, “Condensed pyrazole derivatives, process for producing the same and use thereof” (Takeda Pharmaceutical Company Limited, priority 2000, dated 2005):

melting point [°C] | Compound
165 to 168 | Cc1ccc(-n2nc(C)c3c(Cl)c4cccc(C)c4nc32)nc1 [Example 2-131, 4-Chloro-3,8-dimethyl-1-(5-methyl-2-pyridinyl)-1H-pyrazolo[3,4-b]quinoline]
257 to 260 | Cc1ccc(-n2nc(C)c3c(N)c4cccc(C)c4nc32)nc1 [Example 2-132, 3,8-Dimethyl-1-(5-methyl-2-pyridinyl)-1H-pyrazolo[3,4-b]quinolin-4-ylamine]
182 to 185 | Cc1cccnc1-n1nc(C)c2c(Cl)c3cccc(C)c3nc21 [Example 2-133, 4-Chloro-3,8-dimethyl-1-(3-methyl-2-pyridinyl)-1H-pyrazolo[3,4-b]quinoline]
199 to 202 | Cc1cccnc1-n1nc(C)c2c(N)c3cccc(C)c3nc21 [Example 2-134, 3,8-Dimethyl-1-(3-methyl-2-pyridinyl)-1H-pyrazolo[3,4-b]quinolin-4-ylamine]
144 to 145 | Cc1nn(-c2cccnc2)c2nc3ccccc3c(Cl)c12 [Example 2-136, 4-Chloro-3-methyl-1-(3-pyridinyl)-1H-pyrazolo[3,4-b]quinoline]
282 to 283 | Cc1nn(-c2cccnc2)c2[nH]c3ccccc3c(=O)c12 [Example 2-138, 3-Methyl-1-(3-pyridinyl)-1,9-dihydro-4H-pyrazolo[3,4-b]quinolin-4-one]
126 to 128 | COc1c2ccccc2nc2c1c(C)nn2-c1cccnc1 [Example 2-139, 4-Methoxy-3-methyl-1-(3-pyridinyl)-1H-pyrazolo[3,4-b]quinoline]
165 to 168 | Cc1nn(-c2ccncc2)c2nc3ccccc3c(Cl)c12 [Example 2-140, 4-Chloro-3-methyl-1-(4-pyridinyl)-1H-pyrazolo[3,4-b]quinoline]
155 to 156 | Cc1nn(-c2ccncc2)c2nc3ccccc3c(N(C)C)c12 [Example 2-142, N,N-Dimethyl-N-[3-methyl-1-(4-pyridinyl)-1H-pyrazolo[3,4-b]quinolin-4-yl]amine]
> 300 | Cc1nn(-c2ccncc2)c2[nH]c3ccccc3c(=O)c12 [Example 2-143, 3-Methyl-1-(4-pyridinyl)-1,9-dihydro-4H-pyrazolo[3,4-b]quinolin-4-one]
257 to 260 | Cc1nn(-c2ncccn2)c2nc3ccccc3c(Cl)c12 [Example 2-144, 4-Chloro-3-methyl-1-(2-pyrimidinyl)-1H-pyrazolo[3,4-b]quinoline]
263 to 264 | Cc1nn(-c2ncccn2)c2[nH]c3ccccc3c(=O)c12 [Example 2-146, 3-Methyl-1-(2-pyrimidinyl)-1,9-dihydro-4H-pyrazolo[3,4-b]quinolin-4-one]
191 to 192 | Cc1cc(C)nc(-n2nc(C)c3c(Cl)c4ccccc4nc32)n1 [Example 2-147, 4-Chloro-1-(4,6-dimethyl-2-pyrimidinyl)-3-methyl-1H-pyrazolo[3,4-b]quinoline]
208 to 209 | Cc1nn(-c2nccs2)c2nc3ccccc3c(Cl)c12 [Example 2-149, 4-Chloro-3-methyl-1-(1,3-thiazol-2-yl)-1H-pyrazolo[3,4-b]quinoline]
261 to 263 | Cc1nn(-c2nccs2)c2nc3ccccc3c(N)c12 [Example 2-150, 3-Methyl-1-(1,3-thiazol-2-yl)-1H-pyrazolo[3,4-b]quinolin-4-ylamine]
226 to 227 | Cc1nn(-c2nccs2)c2[nH]c3ccccc3c(=O)c12 [Example 2-151, 3-Methyl-1-(1,3-thiazol-2-yl)-1,9-dihydro-4H-pyrazolo[3,4-b]quinolin-4-one]

melting point [°C] | Compound
273 to 276 | Cc1cccc2c(N)c3c(C)nn(-c4ccc5ccccc5n4)c3nc12 [Example 2-153, 3,8-Dimethyl-1-(2-quinolinyl)-1H-pyrazolo[3,4-b]quinolin-4-ylamine]
255 to 257 | Cc1cccc2c(=O)c3c(C)nn(-c4ccc5ccccc5n4)c3[nH]c12 [Example 2-154, 3,8-Dimethyl-1-(2-quinolinyl)-1,9-dihydro-4H-pyrazolo[3,4-b]quinolin-4-one]
230 to 231 | Cc1nn(-c2ccccn2)c2nc3ccsc3c(Cl)c12 [Example 2-155, 4-Chloro-3-methyl-1-(2-pyridinyl)-1H-pyrazolo[3,4-b]thieno[2,3-e]pyridine]
228 to 229 | Cc1nn(-c2ccccn2)c2[nH]c3ccsc3c(=O)c12 [Example 2-156, 3-Methyl-1-(2-pyridinyl)-1,8-dihydro-4H-pyrazolo[3,4-b]thieno[2,3-e]pyridin-4-one]
153 to 156 | Clc1c2ccccc2nc2c1cnn2-c1ccccn1 [Example 2-157, 4-Chloro-1-(2-pyridinyl)-1H-pyrazolo[3,4-b]quinoline]
175 to 176 | Clc1ccc2nc3c(cnn3-c3ccccn3)c(Cl)c2c1 [Example 2-160, 4,6-Dichloro-1-(2-pyridinyl)-1H-pyrazolo[3,4-b]quinoline]
173 to 176 | Fc1cccc2nc3c(cnn3-c3ccccn3)c(Cl)c12 [Example 2-162, 4-Chloro-5-fluoro-1-(2-pyridinyl)-1H-pyrazolo[3,4-b]quinoline]
278 to 281 | O=c1c2cnn(-c3ccccn3)c2[nH]c2cccc(F)c12 [Example 2-163, 5-Fluoro-1-(2-pyridinyl)-1,9-dihydro-4H-pyrazolo[3,4-b]quinolin-4-one]
176 to 179 | Fc1ccc2nc3c(cnn3-c3ccccn3)c(Cl)c2c1 [Example 2-164, 4-Chloro-6-fluoro-1-(2-pyridinyl)-1H-pyrazolo[3,4-b]quinoline]
166 to 168 | FC(F)(F)c1nn(-c2ccccn2)c2nc3ccccc3c(Cl)c12 [Example 2-166, 4-Chloro-1-(2-pyridinyl)-3-trifluoromethyl-1H-pyrazolo[3,4-b]quinoline]
231 to 233 | O=c1c2ccccc2[nH]c2c1c(C(F)(F)F)nn2-c1ccccn1 [Example 2-167, 1-(2-Pyridinyl)-3-trifluoromethyl-1,9-dihydro-4H-pyrazolo[3,4-b]quinolin-4-one]
203 to 205 | Clc1c2ccccc2nc2c1c(CBr)nn2-c1ccccn1 [Example 2-168, 3-Bromomethyl-4-chloro-1-(2-pyridinyl)-1H-pyrazolo[3,4-b]quinoline]
146 to 148 | CC(C)c1nn(-c2ccccn2)c2nc3ccccc3c(Cl)c12 [Example 2-172, 4-Chloro-3-isopropyl-1-(2-pyridinyl)-1H-pyrazolo[3,4-b]quinoline]
143 to 144 | CC(C)c1nn(-c2ccccn2)c2[nH]c3ccccc3c(=O)c12 [Example 2-173, 3-Isopropyl-1-(2-pyridinyl)-1,9-dihydro-4H-pyrazolo[3,4-b]quinolin-4-one]
167 to 169 | CC(C)Cc1nn(-c2ccccn2)c2[nH]c3ccccc3c(=O)c12 [Example 2-174, 3-Isobutyl-1-(2-pyridinyl)-1,9-dihydro-4H-pyrazolo[3,4-b]quinolin-4-one]
152 to 153 | COC(=O)Cc1nn(-c2ccccn2)c2nc3ccccc3c(Cl)c12 [Example 2-175, Methyl 2-[4-chloro-1-(2-pyridinyl)-1H-pyrazolo[3,4-b]quinolin-3-yl]acetate]
